Reference: the CheMixHub ionic liquid set

Experiment: xn = mol fraction of the nth substance listed

OC[C@H]1O[C@@](CO)(O[C@H]2O[C@H](CO)[C@@H](O)[C@H](O)[C@H]2O)[C@@H](O)[C@@H]1O + O + CCCCCC[n+]1ccn(C)c1.[Br-]
viscosity [mPa·s], 100 kPa
Conditions	x1 = 0.001819, x3 = 0	x1 = 0.002681, x3 = 0	x1 = 0.003595, x3 = 0	x1 = 0.004483, x3 = 0	x1 = 0.006262, x3 = 0	x1 = 0.007151, x3 = 0	x1 = 0.008891, x3 = 0
288.15 K	1.252	1.306	1.362	1.414	1.517	1.571	1.678
298.15 K	0.98	1.021	1.065	1.104	1.182	1.222	1.295
308.15 K	0.789	0.822	0.855	0.886	0.949	0.978	1.035
318.15 K	0.657	0.683	0.709	0.733	0.783	0.805	0.86

CCCCCCCCCCCCCCCC[n+]1ccccc1.[Br-] + NCC(=O)NCC(=O)O + O
electrical conductivity [S/m], 100 kPa
Conditions	x1 = 8.993e-05, x2 = 0.001802	x1 = 8.996e-05, x2 = 0.001442	x1 = 8.999e-05, x2 = 0.001082	x1 = 9.003e-05, x2 = 0.0007216	x1 = 9.006e-05, x2 = 0.0003609	x1 = 9.009e-05, x2 = 0
298.15 K	0.023	0.022	0.021	0.02	0.019	0.021
303.15 K	0.024	0.023	0.022	0.021	0.02	0.021
308.15 K	0.025	0.024	0.023	0.022	0.021	0.022
313.15 K	0.026	0.025	0.024	0.023	0.022	0.024

C[N+](C)(C)CCO.O=C([O-])CO + O
Conditions	viscosity [mPa·s]
293.15 K, 101 kPa, x2 = 0.366	660
